This note sets out measurements from ChEMBL document CHEMBL2074543, “Interactions of cationic drugs and cardiac glycosides at the hepatic uptake level: studies in the rat in vivo, isolated perfused rat liver, isolated rat hepatocytes and oocytes expressing oatp2” (Arch Pharm Res, 2002).

The data set addresses T1, Solute carrier organic anion transporter family member 1A4 (Rattus norvegicus, UniProt O35913).
T1 sequence (O35913 whole entry): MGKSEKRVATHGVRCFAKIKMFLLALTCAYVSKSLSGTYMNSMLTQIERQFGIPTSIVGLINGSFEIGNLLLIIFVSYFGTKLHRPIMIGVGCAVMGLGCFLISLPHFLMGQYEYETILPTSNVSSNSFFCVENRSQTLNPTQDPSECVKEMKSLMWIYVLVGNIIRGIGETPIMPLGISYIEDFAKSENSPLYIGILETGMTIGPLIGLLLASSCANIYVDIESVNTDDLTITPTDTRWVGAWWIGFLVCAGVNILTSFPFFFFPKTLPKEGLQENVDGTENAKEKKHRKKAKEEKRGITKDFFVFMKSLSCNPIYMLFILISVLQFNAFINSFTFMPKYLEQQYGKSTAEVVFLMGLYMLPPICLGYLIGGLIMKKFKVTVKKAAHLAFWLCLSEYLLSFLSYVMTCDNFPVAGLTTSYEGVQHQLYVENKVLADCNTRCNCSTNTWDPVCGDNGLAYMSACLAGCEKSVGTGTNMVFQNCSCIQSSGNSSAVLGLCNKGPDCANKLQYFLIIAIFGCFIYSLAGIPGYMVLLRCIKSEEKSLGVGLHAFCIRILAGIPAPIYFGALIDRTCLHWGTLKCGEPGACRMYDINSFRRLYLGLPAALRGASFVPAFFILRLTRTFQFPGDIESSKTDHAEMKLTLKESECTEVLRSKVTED
As to the kind of experiment: TP_TRANSPORTER: inhibition of Rocuronium uptake in Xenopus laevis oocytes. To be noted: oocyte. Format: functional, cell-based.

`CC[N+](C)(CC)CCNC(=O)c1ccc(N=[N+]=[N-])cc1.[I-]` [AZIDOPROCAINAMIDE METHOIODIDE]: the Activity entry is “is not an inhibitor [-]”.
On to `CCCC[N+](C)(CCCC)CCCC` [TRIBUTYLMETHYLAMMONIUM], for which the Activity entry is “is not an inhibitor [-]”.
